Our source for the MIC values is DBAASP.

Some test systems named below: Escherichia coli UB1005; Escherichia coli DC2; Escherichia coli D31; Listeria monocytogenes; Salmonella typhimurium; Escherichia coli O157; Streptococcus mutans; Bacillus subtilis 1A751.
Common to all, as to assay: ≥ marks a high value that may be exact or a test limit, other limits are often not marked, values filed in µg/mL are converted to µM
The test system of experiment [1] is Corynebacterium xerosis C875.
Experiment [2] deals with Enterococcus faecalis ATCC 29212.
In experiment [3] the test system is Staphylococcus aureus ATCC 25923.
The subject of experiment [4] is Pseudomonas aeruginosa ATCC 27853.
Experiment [5] relates to Staphylococcus epidermidis C621.
The subject of experiment [6] is Escherichia coli ATCC 25922.
In experiment [7] the test system is Bacillus subtilis ATCC 6633.
Experiment [8] relates to Candida albicans CIB 45437.
In experiment [9] the test system is Escherichia coli CIB 84492.
Experiment [10] concerns Staphylococcus aureus CIB 85462.
The test system of experiment [11] is Staphylococcus aureus ATCC 29213.
Experiment [12] deals with Candida albicans ATCC 14053.
For experiment [13], the system named is Candida tropicalis ATCC 13803.
For experiment [14], the system named is Candida albicans ATCC 20032.
For experiment [15], the system named is Escherichia coli ATCC 25404.
For experiment [16], the system named is Micrococcus luteus ATCC 10420.
For experiment [17], the system named is Staphylococcus epidermidis ATCC 9709.
For experiment [18], the system named is Staphylococcus aureus ATCC 43300.
The test system of experiment [19] is Veillonella atypica PK1910.
Experiment [20] concerns Lacticaseibacillus casei ATCC 4646.
For experiment [21], the system named is Streptococcus gordonii Challis DL1.
Experiment [22] has as its system Streptococcus sanguinis NY101.
In experiment [23] the test system is Streptococcus mitis ATCC 903.
The subject of experiment [24] is Salmonella enterica subsp. enterica serovar Choleraesuis CMCC 50020.

Values after ≈ are worked out from the molar mass of the structure shown.

As usually defined, the MIC is the lowest concentration that inhibits growth of the organism. `C[C@H](NC(=O)[C@H](C)NC(=O)[C@H](CCCCN)NC(=O)[C@H](CCCCN)NC(=O)[C@@H](N)CCCCN)C(=O)N[C@@H](C)C(=O)N[C@@H](Cc1ccccc1)C(=O)N[C@@H](C)C(=O)N[C@@H](C)C(=O)N[C@@H](Cc1c[nH]c2ccccc12)C(=O)N[C@@H](C)C(=O)N[C@@H](C)C(=O)N[C@@H](Cc1ccccc1)C(=O)N[C@@H](C)C(=O)N[C@@H](CCCCN)C(=O)N[C@@H](CCCCN)C(=O)N[C@@H](CCCCN)C(N)=O` [KKKAAAFAAWAAFAKKK]: the MIC is no less than 32 µM against Escherichia coli UB1005; 4 µM (≈ 7.34 µg/mL) in experiment [1]; greater than 32 µM in [2]; greater than 32 µM in experiment [3]; 16 µM (≈ 29.4 µg/mL) in the experiment on Escherichia coli DC2; greater than 32 µM in [4]. In addition, the MIC in [5] is no less than 32 µM; in experiment [6] it was greater than 32 µM; in experiment [7], 16 µM (≈ 29.4 µg/mL).

In the case of `CC[C@H](C)[C@H](NC(=O)CN)C(=O)N[C@@H](Cc1ccccc1)C(=O)NCC(=O)N[C@@H](CCCCN)C(=O)N[C@H](C(=O)N[C@@H](CC(C)C)C(=O)NCC(=O)N[C@H](C(=O)NCC(=O)N[C@@H](CCCCN)C(=O)N[C@@H](CCCCN)C(=O)N[C@H](C(=O)N[C@@H](CC(C)C)C(=O)N[C@H]1CSSC[C@@H](C(=O)O)NC(=O)[C@H](CCSC)NC(=O)CNC(=O)[C@H](CO)NC(=O)[C@H](CC(C)C)NC(=O)CNC1=O)C(C)C)C(C)C)[C@@H](C)CC` [GIFGKILGVGKKVLCGLSGMC], the MIC in experiment [8] was determined as 30.8 µM (≈ 63.9 µg/mL); in [3] it was 7.69 µM (≈ 16 µg/mL); in experiment [9], 15.4 µM (≈ 32 µg/mL); in experiment [10], 7.69 µM (≈ 16 µg/mL); in experiment [6], 15.4 µM (≈ 32 µg/mL).

For `CC[C@H](C)[C@@H]1NC(=O)CNC(=O)[C@H](CCCCN)NC(=O)[C@H](CC(N)=O)NC(=O)[C@H](CCCN=C(N)N)NC(=O)[C@H](CCCN=C(N)N)NC(=O)[C@@H](NC(=O)[C@H](CO)NC(=O)[C@H](CCC(N)=O)NC(=O)[C@H](CO)NC(=O)[C@H](CC(N)=O)NC(=O)[C@H](CCCN=C(N)N)NC(=O)[C@@H](NC(=O)CNC(=O)[C@@H](N)CCC(N)=O)C(C)C)CSSC[C@@H]2NC(=O)[C@H](CCCCN)NC(=O)[C@H](C(C)C)NC(=O)[C@H](CCC(N)=O)NC(=O)[C@H](C)NC(=O)CNC(=O)[C@H](CC(C)C)NC(=O)[C@@H]3CSSC[C@H](NC1=O)C(=O)N[C@@H](C(C)C)C(=O)N1CCC[C@H]1C(=O)N[C@@H]([C@@H](C)CC)C(=O)N[C@@H](CCCN=C(N)N)C(=O)N[C@@H](CSSC[C@@H](C(=O)N[C@@H](CCCN=C(N)N)C(=O)N[C@@H](CCCN=C(N)N)C(=O)N[C@@H](CCCCN)C(=O)O)NC2=O)C(=O)N1CCC[C@H]1C(=O)NCC(=O)N[C@@H](CO)C(=O)N[C@@H](CCSC)C(=O)N[C@@H](CCCN=C(N)N)C(=O)N[C@@H](CCC(N)=O)C(=O)N[C@@H]([C@@H](C)CC)C(=O)NCC(=O)N[C@@H]([C@@H](C)O)C(=O)N3` [QGVRNSQSCRRNKGICVPIRCPGSMRQIGTCLGAQVKCCRRK], the MIC in experiment [11] is 19.1 µM (≈ 88.6 µg/mL); in the experiment on Escherichia coli D31, 4.87 µM (≈ 22.6 µg/mL); in experiment [4], 19.1 µM (≈ 88.6 µg/mL); in experiment [12], 9.66 µM (≈ 44.8 µg/mL); in [13], 4.87 µM (≈ 22.6 µg/mL).

With `CC[C@H](C)[C@H](NC(=O)CN)C(=O)NCC(=O)NCC(=O)N[C@@H](CCCCN)C(=O)N[C@H](C(=O)N[C@@H](CC(C)C)C(=O)NCC(=O)NCC(=O)N[C@@H](CC(C)C)C(=O)N[C@@H](CCCCN)C(=O)N[C@H](C(=O)N[C@@H](C)C(=O)N[C@@H](CC(C)C)C(=O)N[C@@H](CCCCN)C(=O)NCC(=O)N[C@@H](C)C(=O)N[C@@H](C)C(=O)N[C@@H](CCCCN)C(=O)N[C@@H](CCC(=O)O)C(=O)N[C@@H](CC(C)C)C(=O)N[C@@H](C)C(=O)N[C@@H](CO)C(=O)N[C@H](C(=O)N[C@@H](Cc1ccc(O)cc1)C(=O)N[C@@H](CC(C)C)C(=O)N[C@@H](Cc1cnc[nH]1)C(N)=O)[C@@H](C)O)[C@@H](C)O)[C@@H](C)CC` [GIGGKILGGLKTALKGAAKELASTYLH], the MIC was 3.52 µM (≈ 9.4 µg/mL) in experiment [3], no less than 37.5 µM in [14], 7.05 µM (≈ 18.8 µg/mL) in [6] and no less than 37.5 µM in experiment [7].

In the case of `CC(C)C[C@H](NC(=O)[C@H](CC(C)C)NC(=O)[C@H](Cc1cnc[nH]1)NC(=O)[C@H](CO)NC(=O)[C@H](CC(C)C)NC(=O)[C@H](C)NC(=O)[C@H](Cc1cnc[nH]1)NC(=O)[C@H](Cc1ccccc1)NC(=O)[C@H](CC(C)C)NC(=O)[C@H](C)NC(=O)CNC(=O)[C@H](CC(C)C)NC(=O)[C@@H](N)Cc1ccccc1)C(=O)O` [FLGALFHALSHLL], the MIC against Listeria monocytogenes is no less than 64 µM; in the experiment on Salmonella typhimurium it was no less than 64 µM; in experiment [11], 8 µM (≈ 11.5 µg/mL); in experiment [15], no less than 64 µM; in experiment [16] it was 8 µM (≈ 11.5 µg/mL); in the experiment with Escherichia coli O157, no less than 64 µM. Besides, the MIC in experiment [17] and in [18] was 16 µM (≈ 23 µg/mL) in each case.

For `CC[C@H](C)[C@H](N)C(=O)N[C@@H](CCCCN)C(=O)N[C@@H](CCC(N)=O)C(=O)N[C@@H](CC(C)C)C(=O)N[C@@H](CC(C)C)C(=O)N[C@@H](Cc1cnc[nH]1)C(=O)N[C@@H](Cc1ccccc1)C(=O)N[C@@H](Cc1ccccc1)C(=O)N[C@@H](CCC(N)=O)C(=O)N[C@@H](CCCN=C(N)N)C(=O)N[C@@H](Cc1ccccc1)C(=O)NCC(=O)NCC(=O)NCC(=O)N[C@@H](CCCN=C(N)N)C(=O)N[C@@H](Cc1c[nH]c2ccccc12)C(=O)N[C@@H](CCCN=C(N)N)C(=O)N[C@@H](Cc1c[nH]c2ccccc12)C(=O)N[C@@H](CCCN=C(N)N)C(=O)N[C@@H](Cc1c[nH]c2ccccc12)C(=O)N[C@@H](Cc1ccccc1)C(N)=O` [IKQLLHFFQRFGGGRWRWRWF], the MIC was determined as 2.83 µM (≈ 8 µg/mL) in [19]; 5.67 µM (≈ 16 µg/mL) in experiment [20]; 11.3 µM (≈ 32 µg/mL) in experiment [21]; 5.67 µM (≈ 16 µg/mL) in experiment [22]; 22.7 µM (≈ 64 µg/mL) in experiment [23]; 2.83 µM (≈ 8 µg/mL) in the experiment on Streptococcus mutans.

Take `CC[C@H](C)[C@H](NC(=O)[C@H](CCCCN)NC(=O)[C@@H](NC(=O)[C@H](CC(C)C)NC(=O)[C@@H](NC(=O)[C@H](CCCCN)NC(=O)[C@H](CC(C)C)NC(=O)[C@H](Cc1ccccc1)NC(=O)[C@H](Cc1ccccc1)NC(=O)[C@H](CCCCN)NC(=O)[C@@H](N)CCCCN)C(C)C)[C@@H](C)O)C(=O)N[C@@H](CCCN=C(N)N)C(=O)N[C@H]1CSSC[C@@H](C(=O)N[C@@H](CCCN=C(N)N)C(=O)N[C@H](C(=O)O)[C@@H](C)O)NC(=O)CNC(=O)CNC(=O)[C@H](C)NC(=O)[C@H](C(C)C)NC(=O)[C@H](CCCCN)NC1=O` [KKFFLKVLTKIRCKVAGGCRT]: the MIC against Bacillus subtilis 1A751 was no less than 53.4 µM; in experiment [24], 6.67 µM (≈ 16 µg/mL); in [3], 3.34 µM (≈ 7.99 µg/mL); in [6], 3.34 µM (≈ 7.99 µg/mL).
